Test results published in BigSolDB 2.1.

CC[C@H]1OC(=O)[C@H](C)[C@@H](O[C@H]2C[C@@](C)(OC)[C@@H](O)[C@H](C)O2)[C@H](C)[C@@H](O[C@@H]2O[C@H](C)C[C@H](N(C)C)[C@H]2O)[C@](C)(O)C[C@@H](C)C(=O)[C@H](C)[C@@H](O)[C@]1(C)O.O.O
solubility (mole fraction)
Details	293.2 K	298 K	303.15 K	308 K	313.1 K	318 K	323 K
in acetone	0.00914	0.0131	0.0217	0.0293	0.0433	0.0542	0.0804
in chloroform	0.00391	0.0054	0.00875	0.0134	0.0216	0.0313	0.0473
in ethanol	0.0148	0.0192	0.0254	0.0338	0.046	0.062	0.081
in isopropanol	0.003	0.00401	0.00556	0.00754	0.00995	0.0143	0.0194
in methanol	0.0116	0.0143	0.0179	0.0215	0.0253	0.0305	0.0373
in water	5.4e-05	4.7e-05	4.2e-05	4e-05	3.8e-05	3.5e-05	3.4e-05
